# Assay results reported in PMC7674337, “Phylogenetic analysis of plant multi-domain SEC14-like phosphatidylinositol transfer proteins and structure–function properties of PATELLIN2” (Plant Molecular Biology, 2020).
# Target: T1, PATL2 (PATELLIN2; StrepII-PATL2) (Arabidopsis thaliana, UniProt Q56ZI2)
# T1 construct: full-length CDS from Col-0 root cDNA; StrepII-tagged (pET-52b(+)), E. coli BL21(DE3) pLysS; Strep-Tactin purified
# T1 sequence (Q56ZI2 2-683): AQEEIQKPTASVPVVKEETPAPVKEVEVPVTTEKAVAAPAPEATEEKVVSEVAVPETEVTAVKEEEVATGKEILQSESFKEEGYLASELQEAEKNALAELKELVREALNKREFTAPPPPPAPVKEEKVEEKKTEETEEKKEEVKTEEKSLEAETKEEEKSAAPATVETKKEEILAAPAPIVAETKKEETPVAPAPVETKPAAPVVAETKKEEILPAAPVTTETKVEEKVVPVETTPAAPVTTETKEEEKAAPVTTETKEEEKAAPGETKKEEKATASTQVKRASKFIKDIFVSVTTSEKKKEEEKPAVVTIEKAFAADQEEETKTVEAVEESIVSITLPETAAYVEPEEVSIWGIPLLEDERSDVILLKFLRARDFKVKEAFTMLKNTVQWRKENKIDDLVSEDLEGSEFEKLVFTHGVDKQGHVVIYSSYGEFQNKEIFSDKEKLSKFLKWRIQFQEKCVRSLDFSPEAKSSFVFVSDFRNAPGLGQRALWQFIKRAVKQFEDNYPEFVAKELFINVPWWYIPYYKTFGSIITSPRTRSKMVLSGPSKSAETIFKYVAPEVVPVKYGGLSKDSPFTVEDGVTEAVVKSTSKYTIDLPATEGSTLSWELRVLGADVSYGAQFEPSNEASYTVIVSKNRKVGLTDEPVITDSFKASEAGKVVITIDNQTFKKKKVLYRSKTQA
# Test: liposome co-sedimentation, immunoblot
# Assay type: binding
# Conditions: PC/PE liposomes with 7% phosphoinositide; 25 mM Tris-HCl pH 7.5, room temperature
structure (smiles),measurement,value
"CCCCCCCC/C=C\CCCCCCCC(=O)OC[C@H](COP(=O)(O)O[C@@H]1[C@H](O)[C@H](O)[C@@H](O)[C@H](O)[C@H]1O)OC(=O)CCCCCCC/C=C\CCCCCCCC [PI, 1,2-dioleoyl-sn-glycero-3-phospho-(1′-myo-inositol)]","liposome co-sedimentation, immunoblot",a low amount of PATL2 protein was found in the liposome membrane fraction
